Experimental data reported in US9334487B2, “Methods for diagnosing rheumatoid arthritis” (Imperial Innovations Limited, priority 2007, dated 2016).
“Also recorded” adds a separate entry of the source. Bridges are numbered along the chain shown (N, C = ends). Where no end group is shown, it is not given here. [ ]: non-standard residue; d: D form. Cit = NC(=O)NCCC[C@H](N)C(=O)O

Legend:
[1] = tested on: serum IgG of RA patients, disease controls and healthy controls; test: ELISA for IgG antibodies to cyclic α-enolase peptides, UK cohort sera; type: binding, human; conditions: for % positive, RA (n = 102): UK cohort RA sera; for % positive, RA (n = 102) / % positive, Disease controls (n = 110) / % positive, Healthy controls (n = 92): cut-off OD450 = 0.1; for % positive, Disease controls (n = 110) / % positive, Healthy controls (n = 92) / sensitivity for RA: UK cohort; for IgG antibody levels / reactivity (OD450) in RA sera / sensitivity for RA: 102 RA patients; for IgG antibody levels / reactivity (OD450) in RA sera: OD450 (peptide)-OD450 (background)
From the text: (§1) Serum samples were obtained with informed consent and ethical approval from 102 patients with RA and 92 (or 110 patients for the results generally shown in FIGS. 9 to 16) patients with other arthritidies (including systemic lupus erythematosus (n=32), Sjogrens syndrome (n=31), psoriatic arthritis (n=5), Behçet's syndrome (n=18; FIGS. 9 to 16) and miscellaneous other rheumatic diseases (n=24). 92 control serum samples were obtained from healthy volunteers. An additional cohort of 24 patients with RA undergoing treatment with either methotrexate (MTX) alone (n=13) or methotrexate in combination with Infliximab (INF) (n=11) were collected before treatment as well as 6, 18 and 52 weeks post treatment. Disease activity score (DAS 28), erythrocyte sedimentation rate (ESR) and C-reactive protein (CRP) were measured for each patient at the same time points, i.e. 0, 6, 18 an 52 weeks post treatment. All patients attended the Rheumatology Clinic at Charing Cross Hospital, London. An independent cohort from the US included serum samples from 81 RA patients, taken at baseline in a clinical trial at the Omaha Veterans Affairs Medical Centre, University of Nebraska, USA, and 82 serum samples from healthy volunteers. All RA patients met the American College of Rheumatology (ACR) classification criteria (43).
Fifteen cyclic 15 to 23-mer peptides were synthesised at Cambridge Research Biochemicals (Cleveland, UK). The peptide sequences corresponded to amino acid sequences in human α-enolase (SwissProt accession number P06733) or P. gingivalis enolase (SwissProt accession number AAQ66821), with the addition of cysteine residues at the amino- and carboxy-termini and the exchange of citrulline for arginine residues at certain positions, as shown in Tablet and Table 2 below.
(§2) 96-well plates (Maxisorp; Nunc, Roskilde, Denmark) were coated with α-enolase peptides at 10 μg/ml (diluted in a 50 mM carbonate buffer, pH 9.6), or with carbonate buffer alone, and incubated over night at 4° C. Wells were washed with PBS-Tween (0.05%) and blocked with 2% BSA (diluted in PBS) for 3 hours at room temperature. Sera were diluted 1:50 in RIA-buffer (10 mM Tris, 1% BSA, 350 mM NaCl, 1% Triton-X, 0.5% Na-deoxychlate, 0.1% SDS) supplemented with 10% FCS, added in duplicates and incubated for 1.5 hour at room temperature. Plates were washed as described above and incubated with peroxidase-conjugated mouse anti-human IgG (Hybridoma Reagent Laboratory, Baltimore, USA) (diluted 1:1000 in RIA-buffer, 10% FCS) for 1 hour at room temperature. After a final wash (PBS-Tween, 0.05%), bound antibodies were detected with TMB substrate (KPL, Maryland, USA). The reaction was stopped by the addition of 1M H2SO4 and absorbance measured at 450 nm in a Multiscan Ascent microplate reader (Thermo Labsystems). A control serum was included on all plates to correct for plate-to-plate variation. Background OD450 (wells coated with only carbonate buffer) was subtracted from peptide OD450 for every serum tested. Values above 0.1 were taken as positive. ELISA on the US serum samples were performed in a similar manner, but with 2% BSA in carbonate buffer as background, and with an OD cut-off of 0.2 for positive samples. Anti-CCP antibody status was analysed using the CCP2 kit (Eurodiagnostica, Malmo, Sweden), according to the manufacturer's instructions.

[2] = tested on: anti-CEP-1 antibodies in anti-CEP-1 positive RA sera; test: Liquid phase inhibition of binding to CEP-1-coated plates; parameters: species or system human; conditions: six anti-CEP-1 positive RA sera pre-incubated with 0, 1, 10 and 100 μg/ml peptide
Description: Inhibition experiments were performed in liquid phase on six anti-CEP-1 positive RA serum samples or on solid phase using serum from nine double positive (anti-CEP-1 and CCP positive) RA patients. Sera were either pre-incubated for 2 hours in RIA-buffer containing increasing concentrations (0, 1, 10 and 100 μg/ml) of CEP-1, control peptide 1D, peptide 4, peptide 7, peptide 9 or peptide 11, or pre-absorbed on plates coated with CEP-1, carbonate buffer alone or pre-absorbed on commercial CCP2 plates. To eliminate antigen-antibody complexes, the liquid phase mixtures were centrifuged at 13 000 rpm, for 15 minutes, before the supernatants were transferred to CEP-1-coated plates and assessed as described above Inhibition of binding to CEP-1, for serum samples pre-absorbed to CCP, was calculated in relation to the maximum inhibition, which by definition was set to 100% for samples pre-incubated with CEP-1.

[3] = tested on: serum IgG of RA patients and healthy controls (US cohort); test: anti-CEP-1 antibody ELISA, independent US cohort; type: binding, human; conditions: cut-off 98th percentile of controls
From the text: as §1
as §2, with “ELISA on the US serum samples were performed in a similar manner, but with 2% BSA in carbonate buffer as background, and with an OD cut-off of 0.2 for positive samples.” left out, “instructions. […]” for “instructions.”

Substance | % positive, RA (n = 102) [1] [%] | % positive, Disease controls (n = 110) [1] [%] | % positive, Healthy controls (n = 92) [1] [%] | inhibition of antibody binding to CEP-1-coated plates [2] | further results
cakynqll-X-ieeelgskac (CAKYNQLL[Cit]IEEELGSKAC; disulfide 1-19 (inferred); listed as Homo sapiens) [Peptide 8, human α-enolase aa 405-421] | 7 | 4 | 0 | – | –
cekgvply-X-hiadlagnsec (CEKGVPLY[Cit]HIADLAGNSEC; disulfide 1-20 (inferred); listed as Homo sapiens) [Peptide 4, human α-enolase aa 125-142] | 16 | 2 | 2 | no inhibition | inhibition of antibody binding to CEP-1-coated plates ([2]; listed as peptide 4): did not result in decreased antibody binding
ciqvvgddltvtnpk-X-iakac (CIQVVGDDLTVTNPK[Cit]IAKAC; disulfide 1-21 (inferred); listed as Homo sapiens) [Peptide 10, human α-enolase aa 313-331] | 6 | – | 1 | – | –
ckfag-X-nf-X-nplakc (CKFAG[Cit]NF[Cit]NPLAKC; disulfide 1-15 (inferred); listed as Homo sapiens) [Peptide 9, human α-enolase aa 422-434] | 15 | 1 | 1 | no inhibition | inhibition of antibody binding to CEP-1-coated plates ([2]; listed as peptide 9): did not result in decreased antibody binding
ckiha-R-eifds-R-gnptvec (CKIHAREIFDSRGNPTVEC; listed as Homo sapiens) [Peptide 1D, arginine containing control peptide, aa 5-21] | – | 2 | 3 | did not result in decreased antibody binding; also recorded: no inhibition | IgG antibody levels / reactivity (OD450) in RA sera [1]: low IgG-levels; also recorded: low reactivity; IgG antibody levels / reactivity (OD450) in RA sera ([1]; listed as arginine-containing control peptide): low degree of reactivity; IgG antibody levels / reactivity (OD450) in RA sera ([1]; listed as peptide 1D): low IgG-levels; sensitivity for RA [1]: about 4.9%
ckiha-R-eifds-X-gnptvec (CKIHAREIFDS[Cit]GNPTVEC; disulfide 1-19 (inferred); listed as Homo sapiens) [Peptide 1B] | 40 | – | – | – | IgG antibody levels / reactivity (OD450) in RA sera [1]: higher antibody levels; sensitivity for RA [1]: higher sensitivity
ckiha-X-eifds-R-gnptvec (CKIHA[Cit]EIFDSRGNPTVEC; disulfide 1-19 (inferred); listed as Homo sapiens) [Peptide 1C] | 20 | – | – | – | sensitivity for RA [1]: about 20%
ckiig-X-eilds-X-gnptvec (CKIIG[Cit]EILDS[Cit]GNPTVEC; disulfide 1-19 (inferred); listed as Homo sapiens) [1A P. gingivalis, P. gingivalis enolase version of CEP-1, X = citrulline] | 34 | – | – | – | % healthy controls positive, US cohort (n=82) [3]: 2%
cnf-X-eam-X-igaevyhnlknc (CNF[Cit]EAM[Cit]IGAEVYHNLKNC; disulfide 1-20 (inferred); listed as Homo sapiens) [Peptide 5, human α-enolase aa 177-194] | 11 | 4 | 3 | – | –
cnpk-X-iakavnekscncllc (CNPK[Cit]IAKAVNEKSCNCLLC; also: cyclic via terminal Cys, bond and pairing not given here; listed as Homo sapiens) [Peptide 11, human α-enolase aa 324-341] | 18 | – | 0 | no inhibition | inhibition of antibody binding to CEP-1-coated plates ([2]; listed as peptide 11): did not result in decreased antibody binding
cvdlftskglf-X-aavpsgc (CVDLFTSKGLF[Cit]AAVPSGC; disulfide 1-19 (inferred); listed as Homo sapiens) [Peptide 2, human α-enolase aa 22-38] | 10 | 0 | 2 | – | –
cyealel-X-dndkt-X-ymgkgvskc (CYEALEL[Cit]DNDKT[Cit]YMGKGVSKC; disulfide 1-23 (inferred); listed as Homo sapiens) [Peptide 3, human α-enolase aa 44-64] | 15 | 2 | 0 | – | –
